Assay results: US7470434B1, “Methods and compositions for blocking microbial adherence to eukaryotic cells” (priority 2007, dated 2008)

Tests used:
Assay type in all cases: in vivo, human
[1] = system: diarrheal agent (nature not known); assay: Amelioration of infectious diarrhea by oral isoleucine solution
Procedure: In this example isoleucine was administered to treat infectious diarrhea. In this example three individuals were naturally innoculated by a common agent. The nature of the diarrheal agent is not known. The duration of diarrhea was consistent with an infectious etiology. Isoleucine was utilized based on the hypothesis that reduction in microbial adherence would likely limit the continued re-infection of the gut wall by the agent, and/or prevent attachment of opportunistic commensal organisms.
Three members of a family traveling in the Middle East (MZ, BZ, JZ) contracted watery diarrhea, associated with food intolerance, following a meal they shared at a restaurant. Each individual had been in excellent health without prior history of GI complaints. All were unmedicated, including aspirin or antihistanines. […] Diarrhea was watery, without gross blood, minimal mucous, slight fever with chills, no nausea, and persistence of hunger. Peristalsis was vigorous and increased by ingestion of food. Each individual was placed on a diet restricted to clear liquids (juices and soda), digestible carbohydrates (bread, rice, candy). No medications were administered.
Six days after ingestion of the diarrheal agent, one individual was begun on oral isoleucine (ILE) therapy, while the other two continued on restricted diets. ILE (#E-2025 Bachem, lot 511191) was dissolved in distilled water to 0.001%. One glass of ILE solution (about 250 ml) was consumed every several hours. A total of about 4 liters was consumed over 3½ days. A reduction in stool frequency was noted within 12 hours of initiation of ILE therapy.
BZ and JZ both continued to experience diarrhea unabated until about 11 days after ingestion of the infectious agent, with stool frequency decreasing noticeably. […] Thus, isoleucine therapy was associated with a shortening of the duration of diarrhea by approximately three days.

bacterial vaginosis = assay: Amelioration of bacterial vaginosis by local isoleucine powder
Procedure: In this example isoleucine was administered locally to the vagina to treat the symptoms of bacterial vaginosis. By inhibiting the adherence of bacteria to the wall of the vagina, microbial growth, inflammation, and associated signs of malodorous discharge and symptoms such as pruritis can be treated. A person, with a normal menstrual cycle and in excellent health, experienced vaginal irritation and malodorous discharge associated with their cycle, generally beginning several days prior to the onset of their period. Isoleucine was self-administered as a powder locally within the vaginal cavity digitally, twice a day. Within 2 days symptoms of vaginosis disappeared. Isoleucine therapy was continued for several days following termination of menstrual discharge, and then stopped. […] Isoleucine was again administered during the following months, cycled as described initially.

[2] = system: bacteria adherent to gingival epithelial cells; assay: Treatment of gingival infection: microbial adherence to gingival epithelial cells (Giemsa-stained gingival scrapings); conditions: for Gingival epithelial cells with 0 Bacteria / Gingival epithelial cells with 1-10 Bacteria / Gingival epithelial cells with 10-100 Bacteria / Gingival epithelial cells with Contiguous lawn: powder on gums twice daily
Text: In this example isoleucine was applied as a pure crystalline powder directly to the gums. The individuals were normal human volunteers. Each individual had clinically evident low grade gingivitis, as determined by the puffiness of the gingival margin and a history of some bleeding during normal dental brushing. Oral health care comprised twice daily flossing and dental brushing with a non-medicated toothpaste. No oral antiseptic was used. The individuals were not taking antibiotics. Isoleucine was applied by application of powder on the fingertip to the outer and inner gum margins of the upper and lower jaws. The entirety of the gingival surface was covered manually, twice daily. The AM application was performed following breakfast, immediately after brushing. The PM application was conducted prior to retiring for sleep.
Gingival surface was gently scrapped with the side of a rectangular glass cover slip and the material described was applied to a glass microscope slide and air-dried. The slide was stained in concentrated Giemsa stain for 1 min, then destained in water for 5 min. The slide was then air-dried and mounted with a cover slip cemented with Permount. Slides were examined by light microscopy at 100× and 400× magnification. Under these staining conditions bacteria were clearly visualized as dark blue particles against the pale gray epithelial cells.
Gingival scrapings were taken in the morning prior to normal oral care and prior to eating. Prior to scraping, the subject rinsed the mouth with a cup of water to wash free particulate matter, unattached cells, and bacteria.
Scrapings were taken 3 days and 1 day prior to isoleucine administration and 1, 3, 5, and 7 days during isoleucine application. […] The bacteria adherent were represented by several different species, distinguished by morphology. […] At least 200 bacteria were counted on the average on each cell.

[3] = Amelioration of irritable bowel syndrome by isoleucine in yogurt
Procedure: In this example isoleucine was administered to individuals who experienced irritable bowel syndrome (IBS). IBS is a loosely defined condition associated with bowel discomfort including abdominal bloating, nausea, pain and a sense of incomplete bowel movements. The etiology underlying IBS is unknown. It is our hypothesis that IBS results from adherence of certain “pathogenic” commensal organisms to the epithelial lining of certain segments of the GI tract, resulting in disturbance of normal host-bacteria relationships. […] Two women, each in their mid-50's, presented with a history of IBS of over 20 years, in each case. In each, IBS was characterized by a sense of bloating experienced after eating cooked or raw vegetables, fruits, and meat. Each individual experienced urgency to move her bowels several times a day to an extent that often awakened the individuals from sleep. Bloating was accompanied by abdominal discomfort, described as mild cramps. Individuals felt “gassy” most of the day. Each individual was given isoleucine, 1 tsp, twice a day, each dose mixed in ½ cup of yogurt. The yogurt was included to promote reinoculation of the GI tract with probiotic “good” bacteria. In each case, it was known from previous experience that yogurt itself had little effect on the IBS experienced by these individuals. Within 2 day so isoleucine administration, bloating, urgency to defecate, and gassiness had disappeared. Both individuals described the state of their bowel function as “normal”, for the first time in 20 years. […] Each was then withdrawn from isoleucine, and provided yogurt unsupplemented with isoleucine. Within about 2 days both women recorded a reappearance of the former symptoms of IBS.

[4] = 3rd day of ILE therapy, individual
[5] = Day 1 of isoleucine application
[6] = Day 3 of isoleucine application
[7] = Day 7 of isoleucine application

## CC[C@H](C)[C@H](N)C(=O)O [isoleucine]
[1]; [4]
  Food tolerance: cheese and chicken tolerated
  Stools passed: no stools were passed
[1]; MZ on isoleucine versus BZ and JZ on restricted diet only
  Shortening of the duration of diarrhea: approximately three
[1]; individual MZ
  Day following ILE treatment by which a normal stool was passed and the diarrheal episode had passed: ≤ 4 days
[1]; one individual, 0.001% ILE in distilled water, about 250 ml every several hours, begun six days after ingestion of agent
  Time to reduction in stool frequency after initiation of ILE therapy: ≤ 12 h
Bacterial vaginosis; after therapy continued several days past menstrual discharge
  Status following cessation of isoleucine administration: remained symptom free
Bacterial vaginosis; repeated cycled administration in following months, based on symptoms and signs
  Overall outcome of chronic vaginosis: effectively cured
[2]; [5]
  Gingival epithelial cells with 0 Bacteria: 0 % cells
  Gingival epithelial cells with 1-10 Bacteria: 10 % cells
  Gingival epithelial cells with 10-100 Bacteria: 10 % cells
  Gingival epithelial cells with Contiguous lawn: 80 % cells
[2]; Day 3
  Adherent bacteria in gingival smear: dramatic reduction
  Cells fully covered with bacteria, of 100 cells examined: 40
  Microcolonies (contiguous groupings of greater than 4 organisms) on cells: Few
  Neutrophils in gingival smear (sign of inflammation): No neutrophils were evident
  Total adherent bacteria per cell (most cells): < 100
[2]; [6]
  Gingival epithelial cells with 0 Bacteria: 15 % cells
  Gingival epithelial cells with 1-10 Bacteria: 15 % cells
  Gingival epithelial cells with 10-100 Bacteria: 30 % cells
  Gingival epithelial cells with Contiguous lawn: 40 % cells
[2]; Day 7
  Cells completely free of bacteria: 80%
  Cells fully covered with adherent bacteria: 5%
  Cells with 1 to 10 bacteria/cell: 15%
[2]; Day 7, in the AM, prior to oral hygiene
  Breath as described by an examiner: free of odor
[2]; [7]
  Gingival epithelial cells with 0 Bacteria: 80 % cells
  Gingival epithelial cells with 1-10 Bacteria: 15 % cells
  Gingival epithelial cells with 10-100 Bacteria: 0 % cells
  Gingival epithelial cells with Contiguous lawn: 5 % cells
[2]; gingival smear, Day 1 following initiation
  Change in the number of epithelial cells covered with a dense coat of bacteria: little change
[3]; maintained on isoleucine for 1 month
  Response during maintenance: consistent response
[3]; on isoleucine 1 tsp twice a day in yogurt
  State of bowel function as described by the individuals: normal
[3]; yogurt unsupplemented with isoleucine
  Time to reappearance of former symptoms of IBS after withdrawal from isoleucine: ≤ 2 days
